According to ChEMBL document CHEMBL4376834, “Discovery of 4H-Chromen-4-one Derivatives as a New Class of Selective Rho Kinase (ROCK) Inhibitors, which Showed Potent Activity in ex Vivo Diabetic Retinopathy Models” (J Med Chem, 2019):

Assays:
[1] = biological target: G protein-coupled receptor kinase 3 (Homo sapiens, UniProt P35626); assay: Inhibition of recombinant full length human GRK3 using casein as substrate after 40 mins in presence of [gamma-33ATP] by radiometric scintillation counting analysis
[2] = biological target: Serine/threonine-protein kinase SIK3 (Homo sapiens, UniProt Q9Y2K2); assay: Inhibition of recombinant human SIK3 (1 to 307 residues) using KKKVSRSGLYRSP as substrate incubated for 40 mins in presence of [gamma33P]ATP by radiometric scintillation counting analysis
[3] = biological target: MAP/microtubule affinity-regulating kinase 4 (Homo sapiens, UniProt Q96L34); assay: Inhibition of recombinant full length human MARK4 using KKKVSRSGLYRSP as substrate incubated for 40 mins in presence of [gamma-33ATP by radiometric scintillation counting analysis
MAP/microtubule affinity-regulating kinase 4, sequence (Q96L34 whole entry): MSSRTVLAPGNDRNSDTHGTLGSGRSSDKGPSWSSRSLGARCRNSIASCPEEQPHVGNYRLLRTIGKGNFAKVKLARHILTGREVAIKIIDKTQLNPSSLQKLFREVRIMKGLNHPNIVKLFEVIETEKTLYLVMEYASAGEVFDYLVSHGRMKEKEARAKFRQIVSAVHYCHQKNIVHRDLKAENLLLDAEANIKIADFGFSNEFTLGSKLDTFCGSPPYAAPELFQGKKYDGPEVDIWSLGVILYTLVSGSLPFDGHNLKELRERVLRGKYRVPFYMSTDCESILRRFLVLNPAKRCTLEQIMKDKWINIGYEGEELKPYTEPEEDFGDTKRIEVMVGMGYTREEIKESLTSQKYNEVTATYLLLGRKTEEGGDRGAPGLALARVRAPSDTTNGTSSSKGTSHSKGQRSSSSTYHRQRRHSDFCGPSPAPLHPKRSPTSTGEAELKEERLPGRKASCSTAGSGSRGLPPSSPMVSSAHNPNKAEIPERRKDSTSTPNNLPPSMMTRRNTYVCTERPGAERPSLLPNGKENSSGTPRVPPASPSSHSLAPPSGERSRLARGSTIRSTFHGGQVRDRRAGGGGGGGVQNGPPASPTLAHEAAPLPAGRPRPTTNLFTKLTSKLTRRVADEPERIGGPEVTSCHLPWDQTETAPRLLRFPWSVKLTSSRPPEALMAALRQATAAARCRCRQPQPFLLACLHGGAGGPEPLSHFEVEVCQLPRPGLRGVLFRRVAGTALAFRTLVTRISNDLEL

[4] = biological target: Hepatocyte growth factor receptor (Homo sapiens, UniProt P08581, Y1230C); assay: Inhibition of recombinant human MET A1209G/V1290L/Y1248C triple mutant (974 to end residues) using KKKGQEEEYVFIE as substrate incubated for 40 mins in presence of [gamma-33ATP by radiometric scintillation counting analysis
Hepatocyte growth factor receptor, sequence (P08581 25-1390 Y1230C limits assumed): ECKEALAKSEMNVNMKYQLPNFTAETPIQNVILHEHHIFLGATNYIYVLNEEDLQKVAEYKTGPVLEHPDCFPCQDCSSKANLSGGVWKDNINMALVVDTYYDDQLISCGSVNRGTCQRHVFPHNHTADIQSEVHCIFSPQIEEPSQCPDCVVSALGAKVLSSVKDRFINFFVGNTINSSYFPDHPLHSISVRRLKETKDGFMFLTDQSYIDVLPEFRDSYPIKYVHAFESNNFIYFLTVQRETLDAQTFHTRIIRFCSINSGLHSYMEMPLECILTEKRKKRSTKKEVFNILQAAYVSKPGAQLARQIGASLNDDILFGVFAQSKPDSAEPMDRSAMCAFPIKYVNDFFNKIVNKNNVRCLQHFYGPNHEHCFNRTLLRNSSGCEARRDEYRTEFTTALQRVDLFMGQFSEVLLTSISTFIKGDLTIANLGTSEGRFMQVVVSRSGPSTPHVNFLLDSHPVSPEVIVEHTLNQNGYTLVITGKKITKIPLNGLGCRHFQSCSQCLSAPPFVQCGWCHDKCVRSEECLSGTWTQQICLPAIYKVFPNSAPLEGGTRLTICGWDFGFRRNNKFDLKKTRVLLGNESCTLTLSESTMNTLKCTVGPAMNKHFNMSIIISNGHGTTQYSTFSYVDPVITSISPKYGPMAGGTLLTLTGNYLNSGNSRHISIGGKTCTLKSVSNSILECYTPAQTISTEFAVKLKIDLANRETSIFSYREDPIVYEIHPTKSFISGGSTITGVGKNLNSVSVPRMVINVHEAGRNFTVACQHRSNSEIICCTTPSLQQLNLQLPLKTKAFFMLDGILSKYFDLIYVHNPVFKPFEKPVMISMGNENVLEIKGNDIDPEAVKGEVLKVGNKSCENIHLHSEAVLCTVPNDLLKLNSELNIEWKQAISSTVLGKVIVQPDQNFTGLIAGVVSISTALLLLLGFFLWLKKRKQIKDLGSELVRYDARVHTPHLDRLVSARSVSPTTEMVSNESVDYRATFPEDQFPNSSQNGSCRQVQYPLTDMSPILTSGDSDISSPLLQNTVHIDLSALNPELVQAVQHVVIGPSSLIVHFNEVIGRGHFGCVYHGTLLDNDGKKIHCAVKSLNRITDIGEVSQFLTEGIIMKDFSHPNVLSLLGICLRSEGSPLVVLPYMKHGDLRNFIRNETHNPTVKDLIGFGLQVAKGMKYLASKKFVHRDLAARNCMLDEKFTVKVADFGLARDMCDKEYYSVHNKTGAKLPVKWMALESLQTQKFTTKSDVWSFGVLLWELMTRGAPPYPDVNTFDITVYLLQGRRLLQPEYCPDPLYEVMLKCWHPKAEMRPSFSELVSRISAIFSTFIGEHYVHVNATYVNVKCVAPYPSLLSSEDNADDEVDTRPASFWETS

[5] = biological target: Casein kinase I isoform gamma-3 (Homo sapiens, UniProt Q9Y6M4, E302D/K91E/R174G); assay: Inhibition of recombinant human CK1gamma3 K91E/R174G/E302D triple mutant (1 to 330 residues) using KRRRALS(p)VAS as substrate incubated for 40 mins in presence of [gamma-33ATP] by radiometric scintillation counting analysis
CDK4/Cyclin D3 = CDK4/Cyclin D3 (Homo sapiens, UniProt P11802); assay: Inhibition of recombinant full length human CDK4/CyclinD3 using Rb fragment as substrate incubated for 40 mins in presence of [gamma-33ATP] by radiometric scintillation counting analysis; type: protein-complex assay
Focal adhesion kinase 1 = Focal adhesion kinase 1 (Homo sapiens, UniProt Q05397); assay: Inhibition of recombinant human FAK (411 to 686 residues) using EEEEYEEEEEEYY as substrate after 40 mins in presence of [gamma-33ATP] by radiometric scintillation counting analysis
[6] = biological target: Serine/threonine-protein kinase Nek3 (Homo sapiens, UniProt P51956); assay: Inhibition of recombinant full-length human NEK3 using myelin basic protein as substrate measured after 40 mins in presence of [gamma33P]ATP by radiometric scintillation counting analysis
Wee1-like protein kinase = Wee1-like protein kinase (Homo sapiens, UniProt P30291); assay: Inhibition of recombinant human WEE1 (214 to end residues) using LSNLYHQGKFLQT as substrate incubated for 40 mins in presence of [gamma33P]ATP by radiometric scintillation counting analysis
Wee1-like protein kinase, sequence (P30291 whole entry, the tested form may be a part): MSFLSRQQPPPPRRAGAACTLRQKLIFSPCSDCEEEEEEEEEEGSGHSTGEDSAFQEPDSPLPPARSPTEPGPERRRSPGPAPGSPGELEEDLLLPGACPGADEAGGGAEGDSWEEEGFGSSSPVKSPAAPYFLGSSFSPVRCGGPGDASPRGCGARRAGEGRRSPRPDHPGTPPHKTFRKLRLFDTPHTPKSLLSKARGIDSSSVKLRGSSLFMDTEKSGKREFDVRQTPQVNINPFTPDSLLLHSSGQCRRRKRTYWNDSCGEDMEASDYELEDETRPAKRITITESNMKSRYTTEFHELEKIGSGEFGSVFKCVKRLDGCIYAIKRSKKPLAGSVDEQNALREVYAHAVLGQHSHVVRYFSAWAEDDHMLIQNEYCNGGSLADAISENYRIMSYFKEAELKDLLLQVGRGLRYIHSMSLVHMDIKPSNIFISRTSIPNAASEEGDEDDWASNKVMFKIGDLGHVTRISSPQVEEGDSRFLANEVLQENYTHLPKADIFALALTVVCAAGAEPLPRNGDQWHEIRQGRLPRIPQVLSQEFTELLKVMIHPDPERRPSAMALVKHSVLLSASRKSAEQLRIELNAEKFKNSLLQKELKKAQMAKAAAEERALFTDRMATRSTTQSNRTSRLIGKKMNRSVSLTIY

Insulin receptor = Insulin receptor (Homo sapiens, UniProt P06213); assay: Inhibition of human recombinant activated IR (1005 to 1310 residues) using KKSRGDYMTMQIG as substrate after 40 mins by [gamma-33ATP]by radiometric scintillation counting analysis
[7] = biological target: Casein kinase I isoform gamma-2 (Homo sapiens, UniProt P78368); assay: Inhibition of recombinant human CK1gamma2 (18 to end residues) using KRRRALS(p)VAS as substrate incubated for 40 mins in presence of [gamma-33ATP] by radiometric scintillation counting analysis
[8] = biological target: Cyclin-dependent kinase 2/cyclin E1 (Homo sapiens, UniProt P24941); assay: Inhibition of recombinant full length human CDK2/CyclinE using Histone H1 as substrate incubated for 40 mins in presence of [gamma-33ATP] by radiometric scintillation counting analysis; type: protein-complex assay
[9] = biological target: Testis-specific serine/threonine-protein kinase 4 (Homo sapiens, UniProt Q6SA08); assay: Inhibition of recombinant full-length human TSSK4 using KKLNRTLSFAEPG as substrate incubated for 40 mins in presence of [gamma33P]ATP by radiometric scintillation counting analysis
Testis-specific serine/threonine-protein kinase 4, sequence (Q6SA08 whole entry): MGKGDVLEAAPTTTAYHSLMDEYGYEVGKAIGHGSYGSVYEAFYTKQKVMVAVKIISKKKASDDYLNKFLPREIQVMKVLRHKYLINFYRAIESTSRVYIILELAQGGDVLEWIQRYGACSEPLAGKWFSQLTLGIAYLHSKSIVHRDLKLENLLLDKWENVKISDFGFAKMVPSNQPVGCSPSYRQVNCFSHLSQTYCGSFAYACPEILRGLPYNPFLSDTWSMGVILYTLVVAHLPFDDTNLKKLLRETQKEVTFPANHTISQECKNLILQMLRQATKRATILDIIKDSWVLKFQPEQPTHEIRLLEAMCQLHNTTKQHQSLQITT

[10] = biological target: Mitogen-activated protein kinase kinase kinase 3 (Homo sapiens, UniProt Q99759); assay: Inhibition of recombinant full length human MEKK3 using MBP as substrate incubated for 120 mins in presence of [gamma-33ATP by radiometric scintillation counting analysis
Mitogen-activated protein kinase kinase kinase 3, sequence (Q99759 whole entry): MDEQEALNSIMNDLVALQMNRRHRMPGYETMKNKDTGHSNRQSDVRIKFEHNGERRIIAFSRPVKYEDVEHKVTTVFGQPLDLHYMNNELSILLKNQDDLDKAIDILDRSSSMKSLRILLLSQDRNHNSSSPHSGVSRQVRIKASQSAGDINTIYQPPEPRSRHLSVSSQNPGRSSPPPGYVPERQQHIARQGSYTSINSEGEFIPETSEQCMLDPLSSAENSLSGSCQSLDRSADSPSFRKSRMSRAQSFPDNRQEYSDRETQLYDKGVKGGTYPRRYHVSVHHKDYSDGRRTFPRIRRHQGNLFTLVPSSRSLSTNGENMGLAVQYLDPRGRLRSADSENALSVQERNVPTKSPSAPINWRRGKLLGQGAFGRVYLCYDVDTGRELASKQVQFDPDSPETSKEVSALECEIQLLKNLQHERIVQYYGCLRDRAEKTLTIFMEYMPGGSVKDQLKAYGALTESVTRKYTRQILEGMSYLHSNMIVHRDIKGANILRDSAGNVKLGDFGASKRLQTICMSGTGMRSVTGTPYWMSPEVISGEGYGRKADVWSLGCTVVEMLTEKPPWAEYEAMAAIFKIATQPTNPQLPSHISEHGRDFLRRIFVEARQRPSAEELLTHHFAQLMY

[11] = Inhibition of recombinant human Ros V2262A mutant (1883 to end residues) using KKKSPGEYVNIEFG as substrate incubated for 40 mins in presence of [gamma33P]ATP by radiometric scintillation counting analysis
[12] = biological target: Serine/threonine-protein kinase Chk1 (Homo sapiens, UniProt O14757); assay: Inhibition of recombinant full length human CHK1 using KKKVSRSGLYRSP as substrate incubated for 40 mins in presence of [gamma-33ATP] by radiometric scintillation counting analysis
[13] = biological target: Serine/threonine-protein kinase 3 (Homo sapiens, UniProt Q13188); assay: Inhibition of recombinant human MST2 (2 to end residues) using myelin basic protein as substrate measured after 40 mins in presence of [gamma33P]ATP by radiometric scintillation counting analysis
Serine/threonine-protein kinase 3, sequence (Q13188 whole entry): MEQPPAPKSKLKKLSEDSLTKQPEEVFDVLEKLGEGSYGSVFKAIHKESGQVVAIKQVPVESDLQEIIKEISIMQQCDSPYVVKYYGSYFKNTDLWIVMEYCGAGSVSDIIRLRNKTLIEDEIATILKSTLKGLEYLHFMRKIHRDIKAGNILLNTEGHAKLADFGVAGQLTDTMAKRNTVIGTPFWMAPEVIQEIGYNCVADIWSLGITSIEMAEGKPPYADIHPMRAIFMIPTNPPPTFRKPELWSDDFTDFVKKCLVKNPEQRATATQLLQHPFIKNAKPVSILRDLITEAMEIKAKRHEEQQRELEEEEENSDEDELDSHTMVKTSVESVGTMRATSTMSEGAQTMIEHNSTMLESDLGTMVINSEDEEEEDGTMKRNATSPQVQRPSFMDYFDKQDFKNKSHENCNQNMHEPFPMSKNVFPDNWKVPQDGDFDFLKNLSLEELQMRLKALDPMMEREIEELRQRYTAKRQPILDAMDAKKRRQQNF

[14] = biological target: Serine/threonine-protein kinase Nek6 (Homo sapiens, UniProt Q9HC98); assay: Inhibition of recombinant human NEK6 (2 to end residues) using FLAKSFGSPNRAYKK as substrate measured after 40 mins in presence of [gamma33P]ATP by radiometric scintillation counting analysis
Serine/threonine-protein kinase Nek6, sequence (Q9HC98 whole entry): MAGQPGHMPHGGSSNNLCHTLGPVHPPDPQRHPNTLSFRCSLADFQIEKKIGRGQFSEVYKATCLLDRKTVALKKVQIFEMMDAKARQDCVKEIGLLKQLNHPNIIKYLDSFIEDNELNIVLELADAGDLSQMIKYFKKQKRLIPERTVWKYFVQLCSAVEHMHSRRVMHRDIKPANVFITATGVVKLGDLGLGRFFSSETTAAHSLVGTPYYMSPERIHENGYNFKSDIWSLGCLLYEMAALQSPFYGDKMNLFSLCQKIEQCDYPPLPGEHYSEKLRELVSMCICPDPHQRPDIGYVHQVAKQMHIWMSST

[15] = biological target: Wee1-like protein kinase 2 (Homo sapiens, UniProt P0C1S8); assay: Inhibition of recombinant full length human WEE1b using LSNLYHQGKFLQTFCGSPLYRRR as substrate incubated for 120 mins in presence of [gamma33P]ATP by radiometric scintillation counting analysis
[16] = biological target: Tyrosine-protein kinase Lck (Homo sapiens, UniProt P06239); assay: Inhibition of recombinant full length activated human LCK using […] as substrate after 40 mins in presence of [gamma-33ATP] by radiometric scintillation counting analysis
[17] = biological target: Serine/threonine-protein kinase Chk2 (Homo sapiens, UniProt O96017); assay: Inhibition of recombinant human CHK2 (5 to end residues) using KKKVSRSGLYRSP as substrate incubated for 40 mins in presence of [gamma-33ATP] by radiometric scintillation counting analysis
[18] = biological target: Calcium/calmodulin-dependent protein kinase type 1D (Homo sapiens, UniProt Q8IU85); assay: Inhibition of recombinant full length human CaMK1delta using calmodulin as substrate incubated for 40 mins in presence of [gamma-33ATP] by radiometric scintillation counting analysis
Calcium/calmodulin-dependent protein kinase type 1D, sequence (Q8IU85 whole entry): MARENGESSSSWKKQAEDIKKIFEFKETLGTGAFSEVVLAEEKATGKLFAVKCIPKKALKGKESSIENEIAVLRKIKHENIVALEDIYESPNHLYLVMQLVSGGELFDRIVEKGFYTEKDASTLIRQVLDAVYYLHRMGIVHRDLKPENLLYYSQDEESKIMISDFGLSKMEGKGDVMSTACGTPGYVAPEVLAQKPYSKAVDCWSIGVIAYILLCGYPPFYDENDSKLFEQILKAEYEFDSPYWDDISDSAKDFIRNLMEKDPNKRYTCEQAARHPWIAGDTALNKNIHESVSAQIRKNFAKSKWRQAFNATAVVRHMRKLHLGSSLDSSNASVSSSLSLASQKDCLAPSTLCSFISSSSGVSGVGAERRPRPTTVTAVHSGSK

SRSF protein kinase 2 = SRSF protein kinase 2 (Homo sapiens, UniProt P78362); assay: Inhibition of recombinant human SRPK2 (46 to end residues) using RSRSRSRSRSRSRSR as substrate incubated for 40 mins in presence of [gamma33P]ATP by radiometric scintillation counting analysis
[19] = biological target: Vascular endothelial growth factor receptor 2 (Homo sapiens, UniProt P35968); assay: Inhibition of human recombinant KDR (790 to end residues) using myelin basic protein as substrate after 40 mins by [gamma-33ATP] by radiometric scintillation counting analysis
[20] = biological target: Tyrosine-protein kinase HCK (Homo sapiens, UniProt P08631); assay: Inhibition of human HCK recombinant (230 to 497 residues) using […] as substrate after 40 mins by [gamma-33ATP] radiometric assay

Measured: IC50

CN(C)c1ccc(C(=O)Nc2cccc(NC(=O)COc3ccc4c(=O)ccoc4c3)c2)cc1
> 10 µM: [1] | [2] | [3] | [4] | [5] | CDK4/Cyclin D3 | Focal adhesion kinase 1 | [6] | Wee1-like protein kinase | Insulin receptor | [7] | [8] | [9] | [10] | [11] | [12] | [13] | [14] | [15] | [16] | [17] | [18] | SRSF protein kinase 2 | [19] | [20]
